For one test, the system named is GPR5. Nature of the test: Cell-based cAMP for Gi coupled target GPCRs, co-transfection with signal enhancer TSHR-A623I. The arrangement: species or system human. The following applies: FIG. 2. From the text:
(§1) A Gi coupled receptor is known to inhibit adenylyl cyclase, and, therefore, decrease the level of cAMP production, which can make assessment of cAMP levels challenging. An effective technique in measuring the decrease in production of cAMP as an indication of constitutive activation of a receptor that predominantly couples Gi upon activation can be accomplished by co-transfecting a signal enhancer, e.g., a non-endogenous, constitutively activated receptor that predominantly couples with Gs upon activation (e.g., TSHR-A623I, disclosed below), with the Gi linked GPCR (such a technique is exemplified herein with the Gi coupled receptor, GPR24). As is apparent, constitutive activation of a Gs coupled receptor can be determined based upon an increase in production of cAMP. Constitutive activation of a Gi coupled receptor leads to a decrease in production cAMP. Thus, the co-transfection approach is intended to advantageously exploit these “opposite” affects. For example, co-transfection of a non-endogenous, constitutively activated Gs coupled receptor (the “signal enhancer”) with the endogenous Gi coupled receptor (the “target receptor”) provides a baseline cAMP signal (i.e., although the Gi coupled receptor will decrease cAMP levels, this “decrease” will be relative to the substantial increase in cAMP levels established by constitutively activated Gs coupled signal enhancer). By then co-transfecting the signal enhancer with a constitutively activated version of the target receptor, cAMP would be expected to further decrease (relative to base line) due to the increased functional activity of the Gi target (i.e., which decreases cAMP).
(§2) TSHR is a Gs coupled GPCR that causes the accumulation of cAMP upon activation. TSHR was constitutively activated by mutating amino acid residue 623 (i.e., changing an alanine residue to an isoleucine residue). See, SEQ.ID.NO.:402 for nucleic acid sequence and SEQ.ID.NO.:403 for deduced amino acid sequence. A Gi coupled receptor is expected to inhibit adenylyl cyclase, and, therefore, decrease the level of cAMP production, which can make assessment of cAMP levels challenging. An effective technique for measuring the decrease in production of cAMP as an indication of constitutive activation of a Gi coupled receptor can be accomplished by co-transfecting, most preferably, non-endogenous, constitutively activated TSHR (TSHR-A623I) (or an endogenous, constitutively active Gs coupled receptor) as a “signal enhancer” with a Gi linked target GPCR, such as GPR24, to establish a baseline level of cAMP. Upon creating a non-endogenous version of the Gi coupled receptor, this non-endogenous version of the target GPCR is then co-transfected with the signal enhancer, and it is this material that can be used for screening. We utilized such approach to effectively generate a signal when a cAMP assay is used; this approach is preferably used in the direct identification of candidate compounds against Gi coupled receptors. It is noted that for a Gi coupled GPCR, when this approach is used, an inverse agonist of the target GPCR will increase the cAMP signal and an agonist will decrease the cAMP signal.
(§3) On day one, 2×10^4 Hek-293 and Hek-293T cells/well were plated out. On day two, two reaction tubes were prepared (the proportions to follow for each tube are per plate): tube A was prepared by mixing 2 μg DNA of each receptor transfected into the mammalian cells, for a total of 4 μg DNA (e.g., pCMV vector; pCMV vector with mutated THSR (TSHR-A623I); TSHR-A623I and GPR24, etc.) in 1.2 ml serum free DMEM (Irvine Scientific, Irvine, Calif.); tube B was prepared by mixing 120 μl lipofectamine (Gibco BRL) in 1.2 ml serum free DMEM. Tubes A and B were then admixed by inversion (several times), followed by incubation at room temperature for 30–45 min. The admixture is referred to as the “transfection mixture”. Plated Hek-293 cells were washed with 1×PBS, followed by addition of 10 ml serum free DMEM. […]

The test system of test [1] is GPR24. The test is described as above. The following applies: FIG. 1; for cAMP production: cells co-transfected with TSHR-A623I, in the presence of TSH; for decrease in cAMP production compared to TSHR-A623I with endogenous GPR24 (GPR24 wt): co-transfected with TSHR-A623I. On the set-up: species or system human.
Text: as §1, §2, §3
On the technique in general: cAMP levels reflect the balance of adenylyl cyclase and phosphodiesterase activity.

The subject of test [2] is GPR24. Description: Intracellular IP3 accumulation assay (Gq-associated receptors). The format is cell-based, human. To be noted: FIG. 4. How it is done: On day 1, cells comprising the receptors (endogenous and/or non-endogenous) can be plated onto 24 well plates, usually 1×10^5 cells/well (although this number can be optimized. On day 2 cells can be transfected by firstly mixing 0.25 μg DNA in 50 μL serum free DMEM/well and 2 μL lipofectamine in 50 μl serum-free DMEM/well. The solutions are gently mixed and incubated for 15–30 min at room temperature. Cells are washed with 0.5 ml PBS and 400 μl of serum free media is mixed with the transfection media and added to the cells. The cells are then incubated for 3–4 hrs at 37° C./5% CO2 and then the transfection media is removed and replaced with 1 ml/well of regular growth media. On day 3 the cells are labeled with ^3H-myo-inositol. Briefly, the media is removed and the cells are washed with 0.5 ml PBS. Then 0.5 ml inositol-free/serum free media (GIBCO BRL) is added/well with 0.25 μCi of ^3H-myo-inositol/well and the cells are incubated for 16–18 hrs o/n at 37° C./5% CO2. On Day 4 the cells are washed with 0.5 ml PBS and 0.45 ml of assay medium is added containing inositol-free/serum free media 10 μM pargyline 10 mM lithium chloride or 0.4 ml of assay medium and 50 μL of 10× ketanserin (ket) to final concentration of 10 μM. The cells are then incubated for 30 min at 37° C. […]

For the molecule “GPR5 wt: endogenous target receptor GPR5”, the cAMP production in the test on GPR5 (cells co-transfected with TSHR-A623I, in the presence of TSH) came out at 58.79 pmol cAMP/well. The “decrease in production of cAMP against pCMV co-transfected with TSHR-A623I” value in the test with GPR5 (reference pCMV + TSHR-A623I 106.75 pmol cAMP/well) was about 45%.

Regarding “GPR24 wt: endogenous human GPR24 (also known as MCH or SLC-1) receptor [reference compound]”, the cAMP production in the test with GPR24 [1] came out at 336.5 pmol cAMP/well.

In the case of “I261Q: non-endogenous version of the human GPR24 receptor with I261Q mutation (SEQ.ID.NO.:387)”, the “decrease in cAMP production compared to TSHR-A623I with endogenous GPR24 (GPR24 wt)” value in the test with GPR24 [1] is recorded as about 27%. The “increase in IP3 accumulation compared to the endogenous version of GPR24 (GPR24 wt)” value in the test with GPR24 [2] is recorded as about 32%.

B1: 24-IC3-SST2: non-endogenous human GPR24 in which the IC3 loop is replaced with that of SST2 (SEQ.ID.NO.:359) (protein, listed as Homo sapiens)
chain: MDLEASLLPTGPNASNTSDGPDNLTSAGSPPRTGSISYINIIMPSVFGTICLLGIIGNSTVIFAVVKKSKLHWCNNVPDIFIINLSVVDLLFLLGMPFMIHQLMGNGVWHFGETMCTLITAMDANSQFTSTYILTAMAIDRYLATVHPISSTKFRKPSVATLVICLLWALSFISITPVWLYARLIPFPGGAVGCGIRLPNPDTDLYWFTLYQFFLAFALPFVVITAAYVRILQKVKSSGIRVGSSKRKKSEKKVTRTAIAICLVFFVCWAPYYVLQLTQLSISRPTLTFVYLYNAAISLGYANSCLNPFVYIVLCETFRKRLVLSVKPAAQGQLRAVSNAQTADEERTESKGTYFPCHPAHLQVRAPQHATGRDAEKNPRPLGKCRKAGLGVVAMKIHSMGSHVAGEAWSQVWGFQISEIPWGSRMRPLDRTEAEQENMLVWITGC
In the case of B1, in the test on GPR24 [1], the cAMP production is 262.266 pmol cAMP/well and the “decrease in cAMP production compared to TSHR-A623I with endogenous GPR24 (GPR24 wt)” value was about 22%. In addition, the “increase in IP3 accumulation compared to the endogenous version of GPR24 (GPR24 wt)” value in the test with GPR24 [2] is about 27%.

(Values after patent US7097969B2, “Non-endogenous, constitutively activated known G protein-coupled receptors” (Arena Pharmaceuticals, Inc., priority 2000, dated 2006).)
